Data on one compound can be found in PMC3541985, “Improvement of Catalytic Efficiency, Thermo-stability and Dye Decolorization Capability of Pleurotus ostreatus IBL-02 laccase by Hydrophobic Sol Gel Entrapment” (Chemistry Central Journal, 2012).

This experiment has as its system T1, P. ostreatus IBL-02 laccase.
T1 construct: gene pox2
To be noted: free (not immobilised) enzyme; ABTS varied 0.1-1 mM, so the printed unit mM is doubtful; standard assay malonate buffer pH 4.5, 25°C.

As usually defined, the Km is the substrate concentration at which the rate is half of its maximum. Take `CCn1c(=NN=c2sc3cc(S(=O)(=O)O)ccc3n2CC)sc2cc(S(=O)(=O)O)ccc21` [ABTS, 2, 2′-azino-bis-3-ethylbenzothiazoline-6-sulfonic acid]: the Km was 33 mM.
